As usually defined, the inhibition is the change of the read-out against control, counted positive when it falls. In general, EC50 refers to the concentration needed to bring the measured effect to its halfway point. Low values mean higher potency in that assay, high ones lower potency in that assay. The term IC50 denotes the point on the concentration scale where inhibition reaches its midpoint.

SMILES strings stand for the structures. Calls of active or inactive are those of the source. The rule behind the calls is not given here. A value given as a limit tells only on which side of the number the result lay.

In assay [1] the test system is A549. Description: Cell cycle arrest in human A549 cells assessed as accumulation at S phase at 1.6 uM measured after 18 hrs by propidium iodide staining based flow cytometry (reference value: 21%). It is filed as functional. For orientation: In flow cytometry, cells or beads pass a laser one at a time.
In assay [2] the target is Cyclin-dependent kinase 4/cyclin D1 (Homo sapiens) (UniProt P11802+P24385). Briefly: Inhibition of recombinant human N-terminal GST-tagged CDK4 (S4 to E303 residues)/Cyclin D1 (Q4 to I295 residues) expressed in sf9 cells at 10 uM using RBCTF as substrate measured after 1 hr by ADP-glo luminescence assay relative to control. Background: ADP-Glo turns the ADP formed in a reaction into a luminescent signal.

Assay [3] concerns A549. Description: Cell cycle arrest in human A549 cells assessed as accumulation at G2/M phase at 1.6 uM measured after 18 hrs by propidium iodide staining based flow cytometry (reference value: 18%). The format is functional.
In assay [4] the test system is T47D. Description: cells. The note with it: Homo sapiens, 72 h.
Description: Growth inhibition of human T47D cells measured after 72 hrs by propidium iodide staining based fluorescence assay
Assay [5] relates to MDA-MB-468. Briefly: Cell cycle arrest in human MDA-MB-468 cells assessed as ratio of G1 to S phase at 22 uM measured after 18 hrs by propidium iodide staining based flow cytometry (reference value: 2.17). It is filed as functional.
In assay [6] the test system is T47D. Description: Cell cycle arrest in human T47D cells assessed as accumulation at sub-G1 phase at 1.5 uM measured after 18 hrs by propidium iodide staining based flow cytometry relative to control. The format is functional.
Assay [7] deals with A549. Briefly: Up regulation of cyclin-B1 expression in human A549 cells at 0.8 to 1.6 uM measured after 18 hrs by Western blot analysis. The format is functional, cell-based. In general terms: Immunoblotting shows a protein as a band on a membrane.
Assay [8] deals with A549. Briefly: Cell cycle arrest in human A549 cells assessed as accumulation at S phase at 0.8 uM measured after 18 hrs by propidium iodide staining based flow cytometry (reference value: 21%). It is filed as functional.
Assay [9] deals with A549. Briefly: Cell cycle arrest in human A549 cells assessed as accumulation at G0/G1 phase at 0.8 uM measured after 18 hrs by propidium iodide staining based flow cytometry (reference value: 58%). It is filed as functional.
In assay [10] the target is T1, Cytochrome P450 1A1 (Homo sapiens, UniProt P04798).
T1 sequence (P04798 whole entry): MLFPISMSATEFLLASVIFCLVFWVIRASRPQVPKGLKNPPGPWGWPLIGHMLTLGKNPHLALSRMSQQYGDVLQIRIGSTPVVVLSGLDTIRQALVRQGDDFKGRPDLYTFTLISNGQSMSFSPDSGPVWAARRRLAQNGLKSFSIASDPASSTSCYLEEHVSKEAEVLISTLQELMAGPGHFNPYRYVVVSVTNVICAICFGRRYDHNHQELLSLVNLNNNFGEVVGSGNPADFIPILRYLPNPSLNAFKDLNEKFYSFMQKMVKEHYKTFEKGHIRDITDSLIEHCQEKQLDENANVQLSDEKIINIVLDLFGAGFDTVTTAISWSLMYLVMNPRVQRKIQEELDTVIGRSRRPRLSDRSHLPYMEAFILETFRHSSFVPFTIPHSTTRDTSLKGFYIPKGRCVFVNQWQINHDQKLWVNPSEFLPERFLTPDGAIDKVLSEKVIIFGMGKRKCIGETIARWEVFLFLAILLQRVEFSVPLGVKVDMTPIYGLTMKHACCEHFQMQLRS
Briefly: Inhibition of recombinant human CYP1A1 expressed in baker's yeast-derived microsomes using 7-ethoxyresorufin as substrate by fluorescence assay. The format is ADME.

Assay [11] deals with T47D. Briefly: Cell cycle arrest in human T47D cells assessed as accumulation at G0/G1 phase at 1.5 uM treated 18 hrs post serum-starvation measured after 18 hrs in presence of fresh medium containing FBS by propidium iodide staining based flow cytometry (reference value: 60.3%). It is filed as functional.

`O=C(COc1ccc(-c2nc3ccccc3c(=O)[nH]2)cc1)Nc1cccc(Cl)c1`: the Activity in assay [1] came out at 16%; in assay [3], 70%; in [6], 20%; in [8], 10%; in [9], 65%; in [11], 68.1%. In addition, the inhibition in [2] worked out at 95%. Besides, the EC50 in assay [4] is 0.75 µM. Also, the Ratio in assay [5] is given as 3.15. Further, in assay [7], the result was inactive. Moreover, in assay [10], the IC50 was over 5 µM.

(Values after ChEMBL document CHEMBL4480390, “Cink4T, a quinazolinone-based dual inhibitor of Cdk4 and tubulin polymerization, identified via ligand-based virtual screening, for efficient anticancer therapy” (Eur J Med Chem, 2019).)
